Data on one compound can be found in PMC5218480 (PLoS ONE, 2017).

Structures are written as SMILES.

This test concerns MV-4-11 cells. Put plainly: Gene expression microarray analysis (Affymetrix PrimeView) and GSEA. Further details: RFU PODN (11730768_x_at) / Fold change /veh PODN (11730768_x_at) / RFU LINC00158 (11744669_a_at) / Fold change /veh LINC00158 (11744669_a_at) / RFU DUSP10 (11751237_a_at) / Fold change /veh DUSP10 (11751237_a_at) / RFU ID3 (11757404_x_at) / Fold change /veh ID3 (11757404_x_at) / RFU PLEKHG5 (11737974_s_at) / Fold change /veh PLEKHG5 (11737974_s_at) / RFU LRRC4B (11730491_at) / Fold change /veh LRRC4B (11730491_at) / RFU GIMAP4 (11747438_a_at) / Fold change /veh GIMAP4 (11747438_a_at) / RFU KRT8 (11758183_x_at) / Fold change /veh KRT8 (11758183_x_at) / RFU CNN1 (11734310_a_at) / Fold change /veh CNN1 (11734310_a_at) / RFU VPS37D (11726825_at) / Fold change /veh VPS37D (11726825_at) / RFU C10orf10 (11716522_x_at) / Fold change /veh C10orf10 (11716522_x_at) / RFU KIR2DL2 /// KIR2DL4 /// KIR2DL5A /// KIR2DL5B /// KIR2DS1 /// KIR2DS2 /// KIR2DS3 /// KIR2DS4 /// KIR3DL3 /// KIR3DL3 /// KIR3DS1 (11738374_at) / Fold change /veh KIR2DL2 /// KIR2DL4 /// KIR2DL5A /// KIR2DL5B /// KIR2DS1 /// KIR2DS2 /// KIR2DS3 /// KIR2DS4 /// KIR3DL3 /// KIR3DL3 /// KIR3DS1 (11738374_at) / RFU C1QL1 (11718748_at) / Fold change /veh C1QL1 (11718748_at) / RFU TMPRSS4 (11747572_a_at) / Fold change /veh TMPRSS4 (11747572_a_at) / RFU HAMP (11756126_x_at) / Fold change /veh HAMP (11756126_x_at) / RFU RNFT2 (11725882_a_at) / Fold change /veh RNFT2 (11725882_a_at) / RFU NR4A2 (11747474_a_at) / Fold change /veh NR4A2 (11747474_a_at) / RFU ABCC12 (11746883_a_at) / Fold change /veh ABCC12 (11746883_a_at) / RFU TMEM136 (11760407_x_at) / Fold change /veh TMEM136 (11760407_x_at) / RFU CLDN22 /// WWC2 (11732394_at) / Fold change /veh CLDN22 /// WWC2 (11732394_at) / RFU HLA-DPB1 (11760878_x_at) / Fold change /veh HLA-DPB1 (11760878_x_at) / RFU SPINT1 (11716480_a_at) / Fold change /veh SPINT1 (11716480_a_at) / RFU GAP43 (11754022_s_at) / Fold change /veh GAP43 (11754022_s_at) / RFU A4GNT (11735810_at) / Fold change /veh A4GNT (11735810_at) / RFU PRB3 (11715151_x_at) / Fold change /veh PRB3 (11715151_x_at) / RFU TUBB4B (11761932_at) / Fold change /veh TUBB4B (11761932_at) / RFU CAPN14 (11732068_a_at) / Fold change /veh CAPN14 (11732068_a_at) / RFU TMCC2 (11721928_a_at) / Fold change /veh TMCC2 (11721928_a_at) / RFU IRGQ (11745062_a_at) / Fold change /veh IRGQ (11745062_a_at) / RFU FAM174B (11720279_a_at) / Fold change /veh FAM174B (11720279_a_at) / RFU TMPRSS4 (11748680_a_at) / Fold change /veh TMPRSS4 (11748680_a_at) / RFU FAM212B (11763350_a_at) / Fold change /veh FAM212B (11763350_a_at) / RFU PLEKHG5 (11743358_a_at) / Fold change /veh PLEKHG5 (11743358_a_at) / RFU ZSCAN30 (11745921_a_at) / Fold change /veh ZSCAN30 (11745921_a_at) / RFU CMKLR1 (11741424_a_at) / Fold change /veh CMKLR1 (11741424_a_at) / RFU LOC101060620 /// MAPK8IP1 (11723275_at) / Fold change /veh LOC101060620 /// MAPK8IP1 (11723275_at) / RFU SPTSSB (11747773_x_at) / Fold change /veh SPTSSB (11747773_x_at) / RFU PRSS12 (11739890_at) / Fold change /veh PRSS12 (11739890_at) / RFU BIN1 (11741810_x_at) / Fold change /veh BIN1 (11741810_x_at) / RFU WNT11 (11732464_a_at) / Fold change /veh WNT11 (11732464_a_at) / RFU C10orf10 (11716521_a_at) / Fold change /veh C10orf10 (11716521_a_at) / RFU C5orf56 (11738089_at) / Fold change /veh C5orf56 (11738089_at) / RFU CYB561 (11721691_x_at) / Fold change /veh CYB561 (11721691_x_at) / RFU ANKRD19P (11752326_a_at) / Fold change /veh ANKRD19P (11752326_a_at) / RFU OR2T12 /// OR2T33 /// OR2T8 (11738714_s_at) / Fold change /veh OR2T12 /// OR2T33 /// OR2T8 (11738714_s_at) / RFU VCAN (11748164_a_at) / Fold change /veh VCAN (11748164_a_at) / RFU JSRP1 (11732532_at) / Fold change /veh JSRP1 (11732532_at) / RFU KRTAP10-11 (11738290_x_at) / Fold change /veh KRTAP10-11 (11738290_x_at) / RFU MYO3A (11730013_a_at) / Fold change /veh MYO3A (11730013_a_at) / RFU EBF3 (11725865_a_at) / Fold change /veh EBF3 (11725865_a_at) / RFU CAMK2N1 (11719241_x_at) / Fold change /veh CAMK2N1 (11719241_x_at) / RFU C5orf56 (11738088_a_at) / Fold change /veh C5orf56 (11738088_a_at) / RFU OLFML3 (11715873_a_at) / Fold change /veh OLFML3 (11715873_a_at) / RFU LOC100653217 /// NTM (11731650_a_at) / Fold change /veh LOC100653217 /// NTM (11731650_a_at) / RFU MAPK11 (11762145_a_at) / Fold change /veh MAPK11 (11762145_a_at) / RFU FIZ1 (11724087_x_at) / Fold change /veh FIZ1 (11724087_x_at) / RFU OASL (11726364_x_at) / Fold change /veh OASL (11726364_x_at) / RFU SOX15 (11748057_x_at) / Fold change /veh SOX15 (11748057_x_at) / RFU CD79A (11719716_a_at) / Fold change /veh CD79A (11719716_a_at) / RFU HIST1H1D (11736915_at) / Fold change /veh HIST1H1D (11736915_at) / RFU CASKIN2 (11723855_a_at) / Fold change /veh CASKIN2 (11723855_a_at) / RFU LOC730098 (11760151_x_at) / Fold change /veh LOC730098 (11760151_x_at) / RFU OR4N2 (11742367_at) / Fold change /veh OR4N2 (11742367_at) / RFU PRRT2 (11749266_a_at) / Fold change /veh PRRT2 (11749266_a_at) / RFU SNX32 (11753110_a_at) / Fold change /veh SNX32 (11753110_a_at) / RFU CDHR5 (11726645_a_at) / Fold change /veh CDHR5 (11726645_a_at) / RFU RCAN1 (11760418_a_at) / Fold change /veh RCAN1 (11760418_a_at) / RFU FAM167A (11723789_a_at) / Fold change /veh FAM167A (11723789_a_at) / RFU FAM26E (11764081_at) / Fold change /veh FAM26E (11764081_at) / RFU ISYNA1 (11749810_s_at) / Fold change /veh ISYNA1 (11749810_s_at) / RFU ACY1 (11761880_at) / Fold change /veh ACY1 (11761880_at) / RFU 11764098_at / Fold change /veh 11764098_at / RFU SAMD14 (11745864_x_at) / Fold change /veh SAMD14 (11745864_x_at) / RFU NPB (11741838_a_at) / Fold change /veh NPB (11741838_a_at) / RFU TMPRSS6 (11731388_a_at) / Fold change /veh TMPRSS6 (11731388_a_at) / RFU KRTAP10-2 (11738614_at) / Fold change /veh KRTAP10-2 (11738614_at) / RFU ARHGAP8 /// PRR5-ARHGAP8 (11727945_x_at) / Fold change /veh ARHGAP8 /// PRR5-ARHGAP8 (11727945_x_at) / RFU KRTAP5-7 /// NADSYN1 (11734609_at) / Fold change /veh KRTAP5-7 /// NADSYN1 (11734609_at) / RFU RASL12 (11751679_a_at) / Fold change /veh RASL12 (11751679_a_at) / RFU CDKN2B (11736163_a_at) / Fold change /veh CDKN2B (11736163_a_at) / RFU PRF1 (11729649_at) / Fold change /veh PRF1 (11729649_at) / RFU, ZNF638 /// ZNF638-IT1 / Fold change vs veh, ZNF638 /// ZNF638-IT1 / RFU, PANK3 / Fold change vs veh, PANK3 / RFU, SH3YL1 / Fold change vs veh, SH3YL1 / RFU, ZEB2 / Fold change vs veh, ZEB2 / RFU, NRIP1 / Fold change vs veh, NRIP1 / RFU, PTTG1IP / Fold change vs veh, PTTG1IP / RFU, CAPN2 / Fold change vs veh, CAPN2 / RFU, MED14 / Fold change vs veh, MED14 / RFU, SNORA58 / Fold change vs veh, SNORA58 / RFU, C1orf63 / Fold change vs veh, C1orf63 / RFU, LRRFIP1 / Fold change vs veh, LRRFIP1 / RFU, NDUFAF7 / Fold change vs veh, NDUFAF7 / RFU, SLC12A2 / Fold change vs veh, SLC12A2 / RFU, IBTK / Fold change vs veh, IBTK / RFU, ESF1 / Fold change vs veh, ESF1 / Fold change vs veh, TMEM50B / RFU, TAOK1 / Fold change vs veh, TAOK1 / RFU, ACBD3 / Fold change vs veh, ACBD3 / RFU, TMA16 / Fold change vs veh, TMA16 / RFU, RWDD3 / Fold change vs veh, RWDD3 / RFU, BCAT1 / Fold change vs veh, BCAT1 / RFU, EDEM3 / Fold change vs veh, EDEM3 / RFU, TMEM33 / Fold change vs veh, TMEM33 / RFU, WDR75 / Fold change vs veh, WDR75 / RFU, AHCTF1 / Fold change vs veh, AHCTF1 / RFU, TFRC / Fold change vs veh, TFRC / RFU, ZDHHC17 / Fold change vs veh, ZDHHC17 / RFU, NOM1 / Fold change vs veh, NOM1 / RFU, ARL8B / Fold change vs veh, ARL8B / RFU, ZBTB11 / Fold change vs veh, ZBTB11 / RFU, TAMM41 / Fold change vs veh, TAMM41 / RFU, KIAA1704 /// LOC100996395 / Fold change vs veh, KIAA1704 /// LOC100996395 / RFU, ING1 / Fold change vs veh, ING1 / RFU, TRMT61B / Fold change vs veh, TRMT61B / RFU, FUBP3 / Fold change vs veh, FUBP3 / RFU, TP53 / Fold change vs veh, TP53 / RFU, TNKS2 / Fold change vs veh, TNKS2 / RFU, ZFP14 / Fold change vs veh, ZFP14 / RFU, ACTR2 / Fold change vs veh, ACTR2 / RFU, PPP3R1 / Fold change vs veh, PPP3R1 / RFU, PIK3R1 / Fold change vs veh, PIK3R1 / RFU, HNRNPA1 / Fold change vs veh, HNRNPA1 / RFU, RNF170 / Fold change vs veh, RNF170 / RFU, ZNF28 / Fold change vs veh, ZNF28 / RFU, RNGTT / Fold change vs veh, RNGTT / RFU, OGT / Fold change vs veh, OGT / RFU, BRD1 / Fold change vs veh, BRD1 / RFU, MARS / Fold change vs veh, MARS / RFU, ZNF655 / Fold change vs veh, ZNF655 / RFU, FAHD1 / Fold change vs veh, FAHD1 / RFU, BDP1 / Fold change vs veh, BDP1 / RFU, LRRCC1 / Fold change vs veh, LRRCC1 / RFU, ARID1A / Fold change vs veh, ARID1A / RFU, ZNF146 / Fold change vs veh, ZNF146 / RFU, ZNF330 / Fold change vs veh, ZNF330 / RFU, GPN3 / Fold change vs veh, GPN3 / RFU, C9orf123 / Fold change vs veh, C9orf123 / RFU, N4BP2L2 / Fold change vs veh, N4BP2L2 / RFU, ARFIP1 / Fold change vs veh, ARFIP1 / RFU, FAM179B / Fold change vs veh, FAM179B / RFU, BCL10 / Fold change vs veh, BCL10 / RFU, UHRF1BP1L / Fold change vs veh, UHRF1BP1L / RFU, BET1 / Fold change vs veh, BET1 / RFU, CNOT2 / Fold change vs veh, CNOT2 / RFU, ZNF268 / Fold change vs veh, ZNF268 / Fold change vs veh, ZNF507 / RFU, DGCR2 / Fold change vs veh, DGCR2 / RFU, WDSUB1 / Fold change vs veh, WDSUB1 / Fold change vs veh, HSP90B1 /// MIR3652 / RFU, ADSS / Fold change vs veh, ADSS / RFU, GK / Fold change vs veh, GK / RFU, ZNF148 / Fold change vs veh, ZNF148 / RFU, TAF9 / Fold change vs veh, TAF9 / RFU, SLC1A5 / Fold change vs veh, SLC1A5 / RFU, SLMO2 / Fold change vs veh, SLMO2 / RFU, ABCC4 / Fold change vs veh, ABCC4 / RFU, LOC101060439 /// RAP1B / Fold change vs veh, LOC101060439 /// RAP1B / RFU, RFX7 / Fold change vs veh, RFX7 / RFU, GTPBP10 / Fold change vs veh, GTPBP10 / RFU, CNEP1R1 / Fold change vs veh, CNEP1R1 / RFU, BIVM-ERCC5 /// ERCC5 / Fold change vs veh, BIVM-ERCC5 /// ERCC5 / RFU, ILF3 / Fold change vs veh, ILF3 / RFU 11762660_at / Fold change /veh 11762660_at / RFU VCAN (11757783_s_at) / Fold change /veh VCAN (11757783_s_at) / RFU DDX43 (11728927_at) / Fold change /veh DDX43 (11728927_at) / RFU KRT8 (11758188_x_at) / Fold change /veh KRT8 (11758188_x_at) / RFU NKD1 (11759106_at) / Fold change /veh NKD1 (11759106_at) / RFU SRD5A1 (11742802_a_at) / Fold change /veh SRD5A1 (11742802_a_at) / RFU TPSAB1 /// TPSB2 (11721975_s_at) / Fold change /veh TPSAB1 /// TPSB2 (11721975_s_at) / RFU GSTM3 (11746129_a_at) / Fold change /veh GSTM3 (11746129_a_at) / RFU IL23R (11737362_x_at) / Fold change /veh IL23R (11737362_x_at) / RFU TMEM51 (11727254_a_at) / Fold change /veh TMEM51 (11727254_a_at) / RFU PIWIL2 (11732686_x_at) / Fold change /veh PIWIL2 (11732686_x_at) / RFU ORM1 (11744905_x_at) / Fold change /veh ORM1 (11744905_x_at) / RFU CCDC152 (11743942_at) / Fold change /veh CCDC152 (11743942_at) / RFU ECM1 (11717891_a_at) / Fold change /veh ECM1 (11717891_a_at) / RFU IL23R (11748794_a_at) / Fold change /veh IL23R (11748794_a_at) / RFU TNFAIP8L3 (11732012_x_at) / Fold change /veh TNFAIP8L3 (11732012_x_at) / RFU MBOAT4 (11741988_at) / Fold change /veh MBOAT4 (11741988_at) / RFU 11764193_at / Fold change /veh 11764193_at / RFU TMEM53 (11763286_at) / Fold change /veh TMEM53 (11763286_at) / RFU MAGEB2 (11727129_at) / Fold change /veh MAGEB2 (11727129_at) / RFU TMEM200A (11744735_a_at) / Fold change /veh TMEM200A (11744735_a_at) / RFU CCDC152 (11751479_a_at) / Fold change /veh CCDC152 (11751479_a_at) / RFU FAM211A (11726209_a_at) / Fold change /veh FAM211A (11726209_a_at) / RFU RGS16 (11746705_a_at) / Fold change /veh RGS16 (11746705_a_at) / RFU VCAN (11755009_s_at) / Fold change /veh VCAN (11755009_s_at) / RFU RHOB (11743442_s_at) / Fold change /veh RHOB (11743442_s_at) / RFU RGS16 (11720943_a_at) / Fold change /veh RGS16 (11720943_a_at) / RFU RGS16 (11720944_at) / Fold change /veh RGS16 (11720944_at) / RFU, VPS4B / Fold change vs veh, VPS4B / RFU, CREB1 / Fold change vs veh, CREB1 / RFU, DNAJC13 / Fold change vs veh, DNAJC13 / RFU, GNAQ / Fold change vs veh, GNAQ / RFU, CDK5R1 / Fold change vs veh, CDK5R1 / RFU, ZRANB3 / Fold change vs veh, ZRANB3 / RFU, CUL4A / Fold change vs veh, CUL4A / RFU, CCNY / Fold change vs veh, CCNY / RFU, UFL1 / Fold change vs veh, UFL1 / RFU, COG3 / Fold change vs veh, COG3 / RFU, DIAPH2 / Fold change vs veh, DIAPH2 / RFU, SKA2 / Fold change vs veh, SKA2 / RFU, AFF3 / Fold change vs veh, AFF3 / RFU, LMF1 / Fold change vs veh, LMF1 / RFU, IPO11 / Fold change vs veh, IPO11 / RFU, DFFB / Fold change vs veh, DFFB / RFU, FOXP1 / Fold change vs veh, FOXP1 / RFU, CARD8 / Fold change vs veh, CARD8 / RFU, STRN3 / Fold change vs veh, STRN3 / RFU, ADK / Fold change vs veh, ADK / RFU, RASSF2 / Fold change vs veh, RASSF2 / RFU, WIPF1 / Fold change vs veh, WIPF1 / RFU, LARP1B / Fold change vs veh, LARP1B / RFU, RASA1 / Fold change vs veh, RASA1 / RFU, RB1 / Fold change vs veh, RB1 / RFU, PPFIA1 / Fold change vs veh, PPFIA1 / RFU, MAT2A / Fold change vs veh, MAT2A / RFU, CCT5 / Fold change vs veh, CCT5 / RFU, WDR92 / Fold change vs veh, WDR92 / RFU, CUX1 / Fold change vs veh, CUX1 / RFU, TTC7A / Fold change vs veh, TTC7A / RFU, TMEM135 / Fold change vs veh, TMEM135 / RFU, DEPTOR / Fold change vs veh, DEPTOR / RFU, CPM / Fold change vs veh, CPM / RFU, DNAJB6 / Fold change vs veh, DNAJB6 / RFU, CACNA2D3 / Fold change vs veh, CACNA2D3 / RFU, DTX4 / Fold change vs veh, DTX4 / RFU, TFCP2 / Fold change vs veh, TFCP2 / RFU, GMCL1 /// GMCL1P1 / Fold change vs veh, GMCL1 /// GMCL1P1 / RFU, AEBP2 / Fold change vs veh, AEBP2 / RFU, SNHG1 /// SNORD22 /// SNORD25 /// SNORD26 /// SNORD27 /// SNORD28 /// SNORD29 /// SNORD31 / Fold change vs veh, SNHG1 /// SNORD22 /// SNORD25 /// SNORD26 /// SNORD27 /// SNORD28 /// SNORD29 /// SNORD31 / Fold change (Aza/veh), C12orf56 (ProbeSet 11735607_a_at) / Fold change (ACY-1035/veh), C12orf56 (ProbeSet 11735607_a_at) / Fold change (Aza/veh), FGFR1OP (ProbeSet 11751329_s_at) / Fold change (ACY-1035/veh), FGFR1OP (ProbeSet 11751329_s_at) / Fold change (Aza/veh), VPS36 (ProbeSet 11739960_a_at) / Fold change (ACY-1035/veh), VPS36 (ProbeSet 11739960_a_at) / RFU SYPL1 (11715823_x_at) / Fold change /veh SYPL1 (11715823_x_at) / RFU IGFBP7 (11715501_s_at) / Fold change /veh IGFBP7 (11715501_s_at) / RFU REEP3 (11722064_at) / Fold change /veh REEP3 (11722064_at) / RFU IGLL1 (11728026_x_at) / Fold change /veh IGLL1 (11728026_x_at): dose or concentration left out as unconfirmed. The class given is cell-based, human. The following applies: ProbeSet 11729384_s_at; LIST D.

Turning to `Nc1ccc(-c2cccs2)cc1NC(=O)c1ccc2c(c1)cc(C1CC1)n2CCN1CCOCC1` [ACY-1035], the “RFU, CCNY” value came to 178.51 RFU.
